Where a name gives a salt, the structure may show the parent alone. Marks after values point to notes of the source that are not given here.
What was measured:
[1] = Example 8: adverse events; format: in vivo, human
Method: There were no deaths or serious adverse events. No subjects discontinued because of adverse events. The majority of drug-related adverse events occurred when subjects were dosed with Talwin® Nx. These included nausea, vomiting, dizziness, and headache. One subject withdrew consent due to a schedule conflict.
Eleven of 18 subjects experienced a total of 25 adverse events, none serious. Seven of these subjects experienced adverse events described as possibly, probably, or definitely related to the study medication. Overall, adverse events were more frequently reported in subjects receiving Talwin® Nx, consistent with expected adverse events related to pentazocine. All subjects recovered from all adverse events. No action (e.g., discontinuation) was taken with regard to the study drug.

clinical [2] = conditions: both, human, plasma; for AUC(0-t): AUCt; for AUC(0-t) / Cmax / Tmax: plasma naloxone
Method: In Example 8, a single-center, open-label, randomized, 4-period, 4-sequence, 4-treatment crossover study in 18 normal, healthy, young adult, male and female subjects under fasted conditions was conducted. […] Subjects were randomly assigned to four sequences with periods consisting of the following: • Period 1 was Days 1-8 (from the time of the first dose until the time of the second dose), • Period 2 was Days 8-15 (from the time of the second dose until the third dose), • Period 3 was Days 15-22 (from the third dose until the fourth dose), and • Period 4 was Days 22 (from the time of the last dose until the end of the study).
Dosing took place on Days 1, 8, 15, and 22. For the duration of the study, subjects were instructed not to engage in heavy exercise.
Talwin® Nx was administered with 8 ounces of water, which the subjects drank completely. Afterwards, mouth inspections were done to ensure that each subject swallowed the tablet.
Following the single oral dose of naloxone, subjects drank two additional 75 ml rinses of water, for a total volume of 225 ml. For divided doses (also 0.02 mg/ml), the first dose was followed by two 94 ml rinses of water, and subsequent doses were followed by two 75 ml rinses of water.
Intravenous naloxone was administered by IV push. Following IV naloxone, subjects were observed by staff members continuously for at least 20 minutes.
Each subject received each treatment one time. Each treatment followed an overnight fast (excluding water) of at least 10 hours, and after dosing, the subjects fasted for an additional 4 hours. Except for the days of dosings, there were no food restrictions. While subjects were confined to the clinical unit all meals were served at standardized times, and the content was standardized throughout the study and between subjects. Meal records were maintained, including content. No caffeine or xanthine-containing beverages were served while the subjects were in the clinical facility.

clinical [3] = conditions: both, human, plasma, oral
Method: Up to 96 subjects were to be enrolled in order to complete a minimum of 48 subjects who were evaluable for pharmacokinetics. […] Subjects successfully completing the Narcan® challenge were randomly assigned to 1 of 2 crossover treatment sequences (reference to test or test to reference) with a 5-day washout period separating dosing in the 2 periods. Subjects were confined to the study facility continuously from Day-1 until Day 10. […] All doses were administered with 8 ounces of water after an overnight fast (excluding water). […] Plasma concentrations of oxycodone and naloxone (as applicable) were determined, and pharmacokinetic metrics were calculated and analyzed. […] For the purpose of statistical analyses, Period 1 was defined as the time from administration of the first dose (Day 2) to just prior to administration of the second dose (Day 7). Period 2 was defined as the time from administration of the second dose (Day 7) to the time of the 72-hour postdose blood collection on Day 10.

[4] = iv, 0.5 mg, 0.5 mg IV naloxone HCl, arithmetic mean (SD)
[5] = po, 1.5 mg, 1.5 mg naloxone HCl oral divided doses, arithmetic mean (SD)
[6] = po, 1.5 mg, 1.5 mg naloxone HCl single oral dose, 18 subjects, arithmetic mean (SD)
[7] = conclusions of the study, treatment not named

With `C=CCN1CC[C@]23c4c5ccc(O)c4O[C@H]2C(=O)CC[C@@]3(O)[C@H]1C5` [Naloxone HCl, naloxone hydrochloride] the “adverse events considered possibly, probably, or definitely related to study drug” value ([1]; 0.5 mg intravenous naloxone) was “nausea possibly related”, the “adverse events considered possibly, probably, or definitely related to study drug” value ([1]; 1.5 mg oral naloxone in divided doses) was “headache possibly related” and the tolerability ([1]; given alone, total doses of 0.5 mg IV and up to 1.5 mg orally) was “well tolerated”. For the same molecule, the “adverse events during the naloxone challenge test” value ([1]; intravenous challenge at screening, 18 subjects randomized) was “No adverse events were observed”, the AUC(0-inf) (clinical [2]; iv, 0.5 mg) was 3.05 ng·h/mL and the clearance (clinical [2]; iv, 0.5 mg) was 2850 mL/min. For the same molecule, the AUC(0-t) (clinical [2]; iv, 0.5 mg, 0.5 mg IV naloxone HCl, fasted healthy subjects, arithmetic mean (SD)) was 3.2 ng·h/mL, the Cmax (clinical [2]; [4]) was 6.25 ng/mL and the half-life (clinical [2]; iv, 0.5 mg, t1/2, plasma naloxone, 0.5 mg IV naloxone HCl, 15 subjects, arithmetic mean (SD)) was 0.92 h. The Tmax (clinical [2]; [4]) was 0.14 h, the AUC(0-t) (clinical [2]; po, 1.5 mg, 1.5 mg naloxone HCl oral divided doses (0, 3, 6, 9 h), arithmetic mean (SD)) was 0.0649 ng·h/mL and the AUC(0-t) (clinical [2]; po, 1.5 mg, 1.5 mg naloxone HCl single oral dose (solution), 18 subjects, arithmetic mean (SD)) was 0.0474 ng·h/mL. For the same molecule, the Cmax (clinical [2]; [5]) was 0.0134 ng/mL, the Cmax (clinical [2]; [6]) was 0.023 ng/mL and the bioavailability (clinical [2]; po, 1.5 mg, F (%) absolute bioavailability, 1.5 mg naloxone HCl oral divided doses, based on AUCt, mean (SD)) was 0.66%. The bioavailability (clinical [2]; po, 1.5 mg, F (%) absolute bioavailability, 1.5 mg naloxone HCl single oral dose, based on AUCt, mean (SD)) was 0.47%, the Tmax (clinical [2]; [5]) was 3.18 h and the Tmax (clinical [2]; [6]) was 0.78 h. The bioavailability (clinical [2]; po, absolute bioavailability of naloxone, all three oral treatments studied) was < 1%, the Cmax (clinical [3]) was 0.00213 ± 0.00447 ng/mL and the Tmax (clinical [3]) was 3.35 ± 3.69 h. The half-life (clinical [3]) was 4.3 ± 3.03 h, the “AUC0-∞, dose normalized” value (Dose Normalized to 0.5 mg IV Naloxone HCl dose, 0.5 mg IV arm, 15 subjects) was 3051 (668)^a pg · h/ml and the “Mean naloxone peak exposure” value [7] was 8 pg/mL. For the same molecule, the “naloxone peak exposure, range” value [7] was 0 to 16.6 pg/mL.
